Results taken from patent US20260053811A1, “METHODS OF TREATING HYPERTENSION IN OBESE SUBJECTS” (Mineralys Therapeutics, Inc., priority 2022, published 2026).

System: hypertensive subjects
Assay: 24-hour ambulatory blood pressure monitoring (ABPM), incl. nighttime dip
Format: in vivo, human
Conditions: Part 1
Protocol: Ambulatory blood pressure monitoring was accomplished with an ambulatory blood pressure monitoring device that consists of a blood pressure cuff worn on a subject's arm attached to a small recording device that is typically attached to the subject's belt or waistband.
The ABPM device is worn for 24 hours. Throughout that period, the device records the subject's blood pressure at regular intervals, during the subject's routine daily activities and while they are sleeping. The ABPM thus provides a complete record of the subject's blood pressure over a 24-hour period.
24-hour ABPM was measured in the clinic at baseline and Study Week 7. If, for any reason, the ABPM procedure was deemed a failure at the end of Study Week 7, it may have been repeated at Study Week 8 and therefore no imputation was employed regardless of use of rescue medications. Additionally, ABPM was also collected at the end of Study Week 4 in Part 2. If a repeat test was performed, it supersedes the original test results for that visit.
Specific derived variables based on ABPM measurements include mean 24-hour, mean Daytime, and mean Nighttime of SBP, DBP, and heart rate.
Change from baseline to Week 7 in 24-hour mean SBP (and DBP) based on ABPM will be analyzed using an ANCOVA with a term for treatment group and a baseline mean 24-hour value as a covariate.
The nighttime dip is defined as
100%×(mean daytime SBP−mean nighttime SBP)/mean daytime SBP
It is expressed as a percentage and is summarized by treatment group and visit using descriptive statistics. In addition, the number and percentage of subjects with nighttime dip in each of the dipper categories (Bloomfield & Park, 2015) is presented by treatment group and visit. The categories are: • (a) <10% • (b) 10-20% inclusive • (c) >20%
Secondary endpoints of this study were: • (a) Change in 24-hour ambulatory blood pressure monitoring (ABPM) parameters (systolic and diastolic) from baseline to the end of Study Week 7. • (b) Change in office-measured SBP from baseline to the end of Study Weeks 1, 2, 3, 4, 5, 6, and 7. • (c) Change in office-measured diastolic blood pressure (DBP) from baseline to the end of Study Weeks 1, 2, 3, 4, 5, 6, 7, and 8. • (d) Proportion of subjects who achieve office-measured BP of ≤130/80 mm Hg by the end of Study Week 8.

[1] = 25 mg BID, End of Treatment, FAS post-hoc

CC(=O)N[C@H]1CC[C@H](NC(=O)CN2CCN(c3nncc(-c4ccc(C)cc4)n3)CC2)CC1 [Compound A HBr]
Daytime Mean SBP (ABPM), Mean (SD) (12.5 mg QD, EoT, FAS): 141.13 (15.62) mmHg | Nighttime Mean DBP (ABPM), Mean (SD) (12.5 mg QD, EoT, FAS): 74.29 (9.59) mmHg | Nighttime Mean SBP (ABPM), Mean (SD) (12.5 mg QD, EoT, FAS): 132.00 (18.11) mmHg | Subjects with nighttime dip 10-20% in 24-hour systolic ABPM (12.5 mg QD, EoT, FAS): 5 (35.7) n (%) | Subjects with nighttime dip <10% in 24-hour systolic ABPM (12.5 mg QD, EoT, FAS): 9 (64.3) n (%) | Subjects with nighttime dip >20% in 24-hour systolic ABPM (12.5 mg QD, EoT, FAS): 0 n (%) | 24-hr Mean DBP (ABPM) CFB to EoT, Mean (SD) (12.5 mg QD, FAS): −2.27 (8.35) mmHg | 24-hr Mean MAP (ABPM) CFB to EoT, Mean (SD) (12.5 mg QD, FAS): −3.73 (12.21) mmHg | 24-hr Mean SBP (ABPM) CFB to EoT, Mean (SD) (12.5 mg QD, FAS): −5.20 (16.55) mmHg | Daytime Mean DBP (ABPM) CFB to EoT, Mean (SD) (12.5 mg QD, FAS): −2.60 (8.43) mmHg | Daytime Mean SBP (ABPM) CFB to EoT, Mean (SD) (12.5 mg QD, FAS): −4.80 (15.10) mmHg | Nighttime Mean DBP (ABPM) CFB to EoT, Mean (SD) (12.5 mg QD, FAS): −3.21 (9.55) mmHg | Nighttime Mean SBP (ABPM) CFB to EoT, Mean (SD) (12.5 mg QD, FAS): −5.43 (20.36) mmHg | LSM Δ with Placebo, 24-hr DBP (ABPM, ANCOVA) [1]: −5.13 mmHg | LSM Δ with Placebo, 24-hr Mean MAP (ABPM, ANCOVA) [1]: −6.68 mmHg | LSM Δ with Placebo, 24-hr SBP (ABPM, ANCOVA) [1]: −8.04 mmHg | LSM Δ with Placebo, Daytime Mean DBP (ABPM, ANCOVA) [1]: −5.64 mmHg | LSM Δ with Placebo, Daytime Mean SBP (ABPM, ANCOVA) [1]: −8.76 mmHg | LSM Δ with Placebo, Mean Central DBP (ABPM, ANCOVA) [1]: −7.36 mmHg | LSM Δ with Placebo, Mean Central Mean BP (ABPM, ANCOVA) [1]: −8.87 mmHg | LSM Δ with Placebo, Mean Central SBP (ABPM, ANCOVA) [1]: −10.19 mmHg | LSM Δ with Placebo, Nighttime Mean DBP (ABPM, ANCOVA) [1]: −3.28 mmHg | LSM Δ with Placebo, Nighttime Mean SBP (ABPM, ANCOVA) [1]: −4.66 mmHg | 24-hr Mean DBP (ABPM), Mean (SD) (25 mg BID, EoT, FAS): 76.50 (10.59) mmHg | 24-hr Mean MAP (ABPM), Mean (SD) (25 mg BID, EoT, FAS): 103.10 (10.92) mmHg | 24-hr Mean SBP (ABPM), Mean (SD) (25 mg BID, EoT, FAS): 129.69 (12.57) mmHg | Daytime Mean DBP (ABPM), Mean (SD) (25 mg BID, EoT, FAS): 79.04 (10.41) mmHg | Daytime Mean SBP (ABPM), Mean (SD) (25 mg BID, EoT, FAS): 132.58 (13.62) mmHg | Nighttime Mean DBP (ABPM), Mean (SD) (25 mg BID, EoT, FAS): 71.38 (11.94) mmHg | Nighttime Mean SBP (ABPM), Mean (SD) (25 mg BID, EoT, FAS): 123.92 (12.17) mmHg | Subjects with nighttime dip 10-20% in 24-hour systolic ABPM (25 mg BID, EoT, FAS): 4 (16.7) n (%) | Subjects with nighttime dip <10% in 24-hour systolic ABPM (25 mg BID, EoT, FAS): 19 (79.2) n (%) | Subjects with nighttime dip >20% in 24-hour systolic ABPM (25 mg BID, EoT, FAS): 1 (4.2) n (%) | 24-hr Mean DBP (ABPM) CFB to EoT, Mean (SD) (25 mg BID, FAS): −6.12 (9.77) mmHg | 24-hr Mean MAP (ABPM) CFB to EoT, Mean (SD) (25 mg BID, FAS): −7.42 (12.49) mmHg | 24-hr Mean SBP (ABPM) CFB to EoT, Mean (SD) (25 mg BID, FAS): −8.73 (15.67) mmHg | Daytime Mean DBP (ABPM) CFB to EoT, Mean (SD) (25 mg BID, FAS): −6.23 (10.43) mmHg | Daytime Mean SBP (ABPM) CFB to EoT, Mean (SD) (25 mg BID, FAS): −9.08 (17.41) mmHg | Nighttime Mean DBP (ABPM) CFB to EoT, Mean (SD) (25 mg BID, FAS): −4.13 (10.86) mmHg | Nighttime Mean SBP (ABPM) CFB to EoT, Mean (SD) (25 mg BID, FAS): −5.96 (15.37) mmHg | LSM Δ with Placebo, 24-hr DBP (ABPM, ANCOVA) (50 mg QD, End of Treatment, FAS post-hoc): −2.74 mmHg
